Measurements published in patent publication US20230131192A1, “1H-PYRAZOLO[4,3-d]PYRIMIDINE COMPOUNDS AS TOLL-LIKE RECEPTOR 7 (TLR7) AGONISTS” (BRISTOL-MYERS SQUIBB COMPANY, priority 2020, published 2023).

Legend:
[1] = biological target: T1, human TLR7 (Homo sapiens, UniProt Q9NYK1); assay: Human TLR7 agonist (reporter) activity assay, HEK-Blue TLR7 cells, SEAP reporter; format: cell-based; conditions: 18 h treatment, average where assay was performed multiple times, read-out: hTLR7 Agonism EC50
T1 construct: host or cells: HEK-Blue TLR7 cells (engineered human embryonic kidney cells)
T1 sequence (Q9NYK1 27-1049): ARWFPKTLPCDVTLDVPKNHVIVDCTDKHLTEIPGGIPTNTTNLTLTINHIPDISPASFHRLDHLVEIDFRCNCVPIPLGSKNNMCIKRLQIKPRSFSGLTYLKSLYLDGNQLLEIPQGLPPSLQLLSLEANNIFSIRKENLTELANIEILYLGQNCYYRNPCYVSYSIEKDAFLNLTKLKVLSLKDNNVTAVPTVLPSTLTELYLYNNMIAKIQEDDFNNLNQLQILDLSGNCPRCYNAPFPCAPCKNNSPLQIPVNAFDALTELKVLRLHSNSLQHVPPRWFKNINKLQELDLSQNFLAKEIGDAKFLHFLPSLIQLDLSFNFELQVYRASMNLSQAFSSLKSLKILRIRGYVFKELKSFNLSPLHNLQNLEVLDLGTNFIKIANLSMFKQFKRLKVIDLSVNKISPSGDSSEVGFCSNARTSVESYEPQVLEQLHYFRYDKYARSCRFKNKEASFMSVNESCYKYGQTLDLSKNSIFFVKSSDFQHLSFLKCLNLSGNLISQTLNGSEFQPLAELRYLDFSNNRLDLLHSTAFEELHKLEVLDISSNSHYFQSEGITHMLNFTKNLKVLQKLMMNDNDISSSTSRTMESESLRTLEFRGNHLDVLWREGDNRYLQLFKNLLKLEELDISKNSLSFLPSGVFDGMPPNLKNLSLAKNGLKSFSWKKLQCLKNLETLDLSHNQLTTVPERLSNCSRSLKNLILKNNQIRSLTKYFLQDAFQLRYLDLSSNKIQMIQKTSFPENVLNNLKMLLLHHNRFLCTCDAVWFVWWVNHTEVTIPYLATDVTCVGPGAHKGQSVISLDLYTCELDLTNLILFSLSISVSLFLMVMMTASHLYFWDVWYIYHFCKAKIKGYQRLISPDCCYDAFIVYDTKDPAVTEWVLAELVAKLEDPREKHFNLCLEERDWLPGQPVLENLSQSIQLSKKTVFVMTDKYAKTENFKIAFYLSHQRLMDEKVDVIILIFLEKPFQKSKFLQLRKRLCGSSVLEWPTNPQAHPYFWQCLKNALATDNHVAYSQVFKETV
Protocol: This procedure describes a method for assaying human TLR7 (hTLR7) agonist activity of the compounds disclosed in this specification.
HEK-Blue™ TLR7 cells were added to each well of a 384-well tissue-culture plate (15,000 cells per well) and incubated 16-18 h at 37° C., 5% CO2. Compounds (100 nl) were dispensed into wells containing the HEK-Blue™ TLR cells and the treated cells were incubated at 37° C., 5% CO2. After 18 h treatment ten microliters of freshly-prepared Quanti-Blue™ reagent (Invivogen) was added to each well, incubated for 30 min (37° C., 5% CO2) and SEAP levels measured using an Envision plate reader (OD=620 nm). The half maximal effective concentration values (EC50; compound concentration which induced a response halfway between the assay baseline and maximum) were calculated.

[2] = tested on: CD69; assay: Induction of CD69 in human whole blood; format: cell-based; conditions: 17 hrs, CD69 surface staining, 100% set to 1 uM of resiquimod, average where assay was performed multiple times, read-out: hWB CD69 EC50
Protocol: The induction of Type I interferon (IFN) MX-1 genes and the B-cell activation marker CD69 are downstream events that occur upon activation of the TLR7 pathway. The following is a human whole blood assay that measures their induction in response to a TLR7 agonist.
Heparinized human whole blood was harvested from human subjects and treated with test TLR7 agonist compounds at 1 mM. The blood was diluted with RPMI 1640 media and Echo was used to predot 10 nL per well giving a final concentration of 1 uM (10 nL in 10 uL of blood). After mixing on a shaker for 30 sec, the plates were covered and placed in a 37° C. chamber for o/n=17 hrs. Fixing/lysis buffer was prepared (5×→1× in H2O, warm at 37° C.; Cat # BD 558049) and kept the perm buffer (on ice) for later use.
For surface markers staining (CD69): prepared surface Abs: 0.045 ul hCD14-FITC (ThermoFisher Cat # MHCD1401)+0.6 ul hCD19-ef450 (ThermoFisher Cat #48-0198-42)+1.5 ul hCD69-PE (cat # BD555531)+0.855 ul FACS buffer. Added 3 ul/well, spin1000 rpm for 1 min and mixed on shaker for 30 sec, put on ice for 30 mins. Stop stimulation after 30 minutes with 70 uL of prewarmed 1× fix/lysis buffer and use Feliex mate to resuspend (15 times, change tips for each plate) and incubate at 37 C for 10 minutes.
Centrifuge at 2000 rpm for 5 minutes aspirate with HCS plate washer, mix on shaker for 30 sec and then wash with 70 uL in dPBS and pelleted 2×s (2000 rpm for 5 min) and 50 ul wash in FACS buffer pelleted 1×s(2000 rpm for 5 min). Mix on shaker for 30 sec. For Intracellular markers staining (MX-1): Add 50 ul of BD Perm buffer III and mix on shaker for 30 sec. Incubate on ice for 30 minutes (in the dark). Wash with 50 uL of FACS buffer 2× (spin @2300 rpm×5 min after perm) followed by mixing on shaker for 30 sec. Resuspended in 20 ul of FACS buffer containing MX1 antibody ( )(4812)-Alexa 647: Novus Biologicals #NBP2-43704AF647) 20 ul FACS bf+0.8 ul hlgG+0.04 ul MX-1. Spin 1000 rpm for 1 min, mix on shaker for 30se and the samples were incubated at RT in the dark for 45 minutes followed by washing 2×FACS buffer (spin @2300 rpm×5 min after perm). Resuspend 20 ul (35 uL total per well) of FACS buffer and cover with foil and place in 4° C. to read the following day. Plates were read on iQuePlus. The results were loaded into toolset and […] curves are generated in curve master. The y-axis 100% is set to 1 uM of resiquimod.

EC50 [1] [nM]	EC50 [2] [nM]	SMILES
47.8	5.3	COc1cc(CN2CCN(C)CC2)ccc1Cn1ncc2nc(N)nc(NCc3noc(C4CC4)n3)c21 [Compound 129, N7-[(5-cyclopropyl-1,2,4-oxadiazol-3-yl)methyl]-1-({2-methoxy-4-[(4-methylpiperazin-1-yl)methyl]phenyl}methyl)-1H-pyrazolo[4,3-d]pyrimidine-5,7-diamine]
176	58.8	COc1cc(CN2CCC(S(C)(=O)=O)CC2)ccc1Cn1ncc2nc(N)nc(NCc3cc(C)on3)c21 [Compound 111]
46.6	5.9	COc1cc(CNC2CCC2)ccc1Cn1ncc2nc(N)nc(NCc3noc(C)n3)c21 [Compound 107, 1-({4-[(cyclobutylamino)methyl]-2-methoxyphenyl}methyl)-N7-[(5-methyl-1,2,4-oxadiazol-3-yl)methyl]-1H-pyrazolo[4,3-d]pyrimidine-5,7-diamine]
12.3	3.6	COc1cc(CN2CCN(C)CC2)ccc1Cn1ncc2nc(N)nc(NCc3cc(C)on3)c21 [Compound 104, 1-({2-methoxy-4-[(4-methylpiperazin-1-yl)methyl]phenyl}methyl)-N7-[(5-methyl-1,2-oxazol-3-yl)methyl]-1H-pyrazolo[4,3-d]pyrimidine-5,7-diamine]
485	438	COc1cc(CN2CCN(S(C)(=O)=O)CC2)ccc1Cn1ncc2nc(N)nc(NCc3cc(C)on3)c21 [Compound 110, 1-({4-[(4-methanesulfonylpiperazin-1-yl)methyl]-2-methoxyphenyl}methyl)-N7-[(5-methyl-1,2-oxazol-3-yl)methyl]-1H-pyrazolo[4,3-d]pyrimidine-5,7-diamine]
196	18.2	COc1cc(CNC2CCN(S(C)(=O)=O)CC2)ccc1Cn1ncc2nc(N)nc(NCc3noc(C)n3)c21 [Compound 123, 1-[(4-{[(1-methanesulfonylpiperidin-4-yl)amino]methyl}-2-methoxyphenyl)methyl]-N7-[(5-methyl-1,2,4-oxadiazol-3-yl)methyl]-1H-pyrazolo[4,3-d]pyrimidine-5,7-diamine]
67.2	15.5	COc1cc(CN2CCN(C)CC2)ccc1Cn1ncc2nc(N)nc(NCc3noc(C)n3)c21 [Compound 115, 1-({2-methoxy-4-[(4-methylpiperazin-1-yl)methyl]phenyl}methyl)-N7-[(5-methyl-1,2,4-oxadiazol-3-yl)methyl]-1H-pyrazolo[4,3-d]pyrimidine-5,7-diamine]
79.1	19.6	COc1cc(CNC2CCOCC2)ccc1Cn1ncc2nc(N)nc(NCc3noc(C)n3)c21 [Compound 114, 1-[(2-methoxy-4-{[(oxan-4-yl)amino]methyl}phenyl)methyl]-N7-[(5-methyl-1,2,4-oxadiazol-3-yl)methyl]-1H-pyrazolo[4,3-d]pyrimidine-5,7-diamine]
1350	85	COc1cc(CNC2CCOCC2)cnc1Cn1ncc2nc(N)nc(NCc3noc(C)n3)c21 [Compound 130, 1-[(3-methoxy-5-{[(oxan-4-yl)amino]methyl}pyridin-2-yl)methyl]-N7-[(5-methyl-1,2,4-oxadiazol-3-yl)methyl]-1H-pyrazolo[4,3-d]pyrimidine-5,7-diamine]
47.9	4.3	COc1cc(CN2CC(OC)C2)ccc1Cn1ncc2nc(N)nc(NCc3noc(C)n3)c21 [Compound 118, 1-({2-methoxy-4-[(3-methoxyazetidin-1-yl)methyl]phenyl}methyl)-N7-[(5-methyl-1,2,4-oxadiazol-3-yl)methyl]-1H-pyrazolo[4,3-d]pyrimidine-5,7-diamine]
33.7	7.5	COc1cc(CN2CCN(CCO)CC2)ccc1Cn1ncc2nc(N)nc(NCc3noc(C4CC4)n3)c21 [Compound 128, 2-[4-({4-[(5-amino-7-{[(5-cyclopropyl-1,2,4-oxadiazol-3-yl)methyl]amino}-1H-pyrazolo[4,3-d]pyrimidin-1-yl)methyl]-3-methoxyphenyl}methyl)piperazin-1-yl]ethan-1-ol]
100	40.5	COc1cc(CN2CCN(C)CC2)ccc1Cn1nc(C)c2nc(N)nc(NCc3cc(C)on3)c21 [Compound 113, 1-({2-methoxy-4-[(4-methylpipeazin-1-yl)methyl]phenyl}methyl)-3-methyl-N7-[(5-methyl-1,2-oxazol-3-yl)methyl]-1H-pyrazolo[4,3-d]pyrimidine-5,7-diamine]
298	34.7	COc1cc(CN2CCC(S(C)(=O)=O)CC2)ccc1Cn1ncc2nc(N)nc(NCc3noc(C)n3)c21 [Compound 119, 1-({4-[(4-methanesulfonylpiperidin-1-yl)methyl]-2-methoxyphenyl}methyl)-N7-[(5-methyl-1,2,4-oxadiazol-3-yl)methyl]-1H-pyrazolo[4,3-d]pyrimidine-5,7-diamine]
345	299	COc1cc(CN2CCN(S(C)(=O)=O)CC2)ccc1Cn1ncc2nc(N)nc(NCc3noc(C)n3)c21 [Compound 120, 1-({4-[(4-methanesulfonylpiperazin-1-yl)methyl]-2-methoxyphenyl}methyl)-N7-[(5-methyl-1,2,4-oxadiazol-3-yl)methyl]-1H-pyrazolo[4,3-d]pyrimidine-5,7-diamine]
354	472	COc1cc(CO)ccc1Cn1ncc2nc(N)nc(NCc3cc(C)on3)c21 [Compound 101, {4-[(5-amino-7-{[(5-methyl-1,2-oxazol-3-yl)methyl]amino}-1H-pyrazolo[4,3-d]pyrimidin-1-yl)methyl]-3-methoxyphenyl}methanol]
57.6	5.4	COc1cc(CNC2CCOCC2)ccc1Cn1ncc2nc(N)nc(NCc3cc(C)on3)c21 [Compound 103, 1-[(2-methoxy-4-{[(oxan-4-yl)amino]methyl}phenyl)methyl]-N7-[(5-methyl-1,2-oxazol-3-yl)methyl]-1H-pyrazolo[4,3-d]pyrimidine-5,7-diamine]
